This is an account of results in patent US20250144186A1, “NOVEL THERAPEUTIC USES OF GARDNERELLA ENDOLYSINS” (priority 2022, published 2025).

Values after ≈ are worked out from the molar mass of the structure shown. Like-named read-outs stand apart in the source and are kept apart here.

The conditions of experiment [1]: 0.75% MDZ vaginal gel over 16 weeks, cited from earlier work.
For experiment [2], the system named is Gardnerella strains from vaginal swabs of BV patients. Kind of experiment: MIC and MBC99.5 on 18 in-house BV patient isolates. In kind it is cell-based, Gardnerella spp. How it is done:
The minimum inhibitory concentration (MIC), which is a standard measure of the activity of antimicrobials, was determined according to the Clinical and Laboratory Standards Institute protocol (2018) Methods for Antimicrobial Susceptibility Testing of Anaerobic Bacteria (Carpenter et al., 2018). […] Controls for growth in the absence of antimicrobials were also included. OD600 was recorded by a microplate reader (Tecan, Grodig, Austria) after incubation at 37° C. for 48 h or, for some fast-growing strains, after incubation for 24 h. Absence of growth was defined as OD600≤0.14. […] MIC readout and MBC99.5 spotting were performed after 72 h incubation for H2B10B11.

Another experiment relates to Six Gardnerella strains. Kind of experiment: microbe, parasite or virus in culture. The experiment is classed as cell-based, Gardnerella spp. Here is the method: (§1) The final volume of the reaction was 100 µL and the reactions were performed in triplicate in 384-well plates. The OD600 was measured using a microplate reader (Tecan, Grodig, Austria) to generate timepoint 0 h baseline values. The reactions were incubated anaerobically for 24 h, then the OD600 was measured again, and the MIC was measured as the lowest concentration with OD600<0.14. […] This process was repeated for a maximum of 25 rounds. In each round, the input CFU/mL was determined by quantitative plating.
(§2) In parallel, one representative of G. vaginalis (ATCC 14018^T) was passaged 25 times with PM-477 (H2B10).

The subject of another experiment is G. vaginalis biofilm. Kind of experiment: MBEC on pre-formed biofilms of ancestor isolates. In kind it is cell-based, Gardnerella vaginalis. Conditions: for Eradication of biofilm-grown cells (FIG. 1): G. vaginalis (ATCC14018), biofilm grown 40 h, treated 24 h. Here is the method: (§3) Gardnerella spp. (see figures for strain specification) was resuspended in brain heart infusion broth supplemented with 2% (w/v) gelatin, 0.5% yeast extract (w/v), 0.1% starch (w/v) and 0.25% glucose (w/v) (sBHIG). Passaged strains were resuspended in unbuffered NYCB supplemented with 1% glucose (w/v) (sNYCB). The OD600 was set to 0.1 (approx. 10^7-10^8 CFU/mL) and the cell suspension was diluted 1:10 in growth medium as input for biofilm formation. A total of 200 μL of the respective bacterial suspensions was added to 96-well flat bottom plates (tissue-culture treated, Sigma-Aldrich). The biofilms were grown under anaerobic conditions at 37° C. for 40 to 72 hours, depending on the isolate. Subsequently, the supernatant was removed, and the biofilm was treated with antimicrobials dissolved in sBHIG (at pH 5 for treatment with PM-477 (H2B10), and unbuffered for treatment with antibiotics) in 100 μL and incubated anaerobically at 37° C. for another 24 hours. After the treatment, the biofilms were washed twice with 200 μL 1x PBS and dissolved by vigorous pipetting (40x up and down). Serial dilutions of the dissolved cells were spotted on chocolate agar plates. The plates were incubated anaerobically for two to three days and the minimum biofilm eradication concentration (MBEC) of the endolysin or the antibiotics in use were calculated.
Gardnerella dominated biofilms covering the human vaginal epithelial cells are now generally considered as a hallmark of BV. Thus, it was tested how effective antibiotics and PM-477 (H2B10) are in penetrating and killing in vitro pre-formed, 40-72 h old biofilms of various Gardnerella strains.

Experiment [3] concerns G. vaginalis (ATCC 14018T). Kind of experiment: Serial passaging for resistance formation with PM-477. The experiment is classed as cell-based, Gardnerella vaginalis. The note with it: G. vaginalis (ATCC 14018T) passaged 25 times with PM-477 (H2B10). How it is done: as §1, §2
In experiment [4] the test system is Gardnerella strains grown as biofilm. Kind of experiment: MBEC on pre-formed biofilms, summary over ancestor strains. The note with it: 40-72 h old pre-formed biofilms. In kind it is cell-based, Gardnerella spp. Here is the method:
as §3, with “calculated. […]” for “calculated.”

Where [5] appears, read: ancestor G. vaginalis UGent FB049, pre-formed biofilm.

With `Cc1ncc([N+](=O)[O-])n1CCO` [MDZ, metronidazole], the “probability of lasting cure” value in experiment [1] (12 weeks after end of therapy (week 28)) is 34%; in experiment [1] (after 16 weeks) it was 70%. The MIC in experiment [2] (Gardnerella, 72 h, 18 in-house BV patient isolates, read-out: median MIC) is 64 µg/mL (≈ 374 µM); with Six Gardnerella strains (Gardnerella, read-out: MIC after 9 rounds of passaging, 4 out of 6 strains, maximal concentration in use), over 512 µg/mL. Also, the MBC in experiment [2] (Gardnerella, 18 in-house BV patient isolates, read-out: median MBC99.5) stood at 1540 µg/mL (≈ 8970 µM). Also, in experiment [2] (panel of 18 isolates from vaginal swabs of BV patients), the “number of resistant isolates (MIC>32 μg/mL)” value was 10. Also, the “pre-passaging MIC range” value in the experiment with Six Gardnerella strains (six Gardnerella strains before passaging) was 8 to 256 µg/mL. Further, in the experiment with G. vaginalis biofilm, the “Eradication of biofilm-grown cells (FIG. 1)” value was “can be eradicated”. The molecule further yielded an MBEC in the experiment with G. vaginalis biofilm (setting [5]) of 2 to 8 µg/mL.

B1: PM-477: genetically engineered recombinant Gardnerella-specific endolysin, amino acid sequence SEQ ID NO: 1, His-tag cleaved off (protein)
chain: SKRGIDVSEWQGDIDFNAVKASGVEFVIIRAGYGIGCKDKWFEQNYRKAKTCGLDVGAYWYSYANSGFEAAEEAQSCVNMLSGKSFEYPVYFDLEEKSQLNRGRAFCDSLITGFCNKLESCGYYAGFYTSLSTANNLVSAHVRNRYALWIAQWNTHCSYQGSYGLWQYSSSGSVPGVAGRVDMDYAYVDYPSIIKNVGLNGYKNGGSYTAPQISSIDEVAREVINGDWGNGNERKQRLTSAGYDYASVQNKVNELLGVKAYRKSVDELAREVIRGTWGNGSTRKQRLTQAGYDYNAVQKRVNELL
modifications: His-tag cleaved off; H2B10
Consider B1, for which the “MIC after 25 rounds of passaging” value in experiment [3] amounted to 8 µg/mL. In addition, the “MBEC, range over strains” value in experiment [4] was under 2 to 32 µg/mL. For the same molecule, in the experiment on G. vaginalis biofilm, the “Eradication of biofilm-grown cells (FIG. 1)” value is “can be eradicated”. In addition, the MBEC is 32 µg/mL in the experiment on G. vaginalis biofilm (ancestor G. vaginalis ATCC14018, pre-formed biofilm, 24 h treatment); 16 µg/mL in the experiment with G. vaginalis biofilm (ancestor G. vaginalis UGent 09.07, pre-formed biofilm); 2 µg/mL with G. vaginalis biofilm (ancestor G. vaginalis UGent BV50, pre-formed biofilm); 8 to 32 µg/mL with G. vaginalis biofilm (ancestor G. vaginalis UGent BV111.5, pre-formed biofilm); 0.5 to 2 µg/mL in the experiment on G. vaginalis biofilm (setting [5]).
